From PMC7570665 (2020)

Experiments:
[1] = system: T10-7.t5 (XNA, aptamer, all-TNA (alpha-L-threose nucleic acid, 3'-2'); 7-deaza-7-phenyl-guanine in place of every guanine) CTTTTAAGAACCGGACGAACTAGAATATTATATTTT; assay: competitive equilibrium filtration; conditions: 5 mM MgCl2, 300 mM NaCl; 20 mM Tris-HCl pH 7.6; displaces γ-32P-ATP; 4 °C in methods, 24 °C in legend; highest concentration not stated
[2] = system: T10-7.t5 (XNA, aptamer, all-TNA (alpha-L-threose nucleic acid, 3'-2'); 7-deaza-7-phenyl-guanine in place of every guanine) CTTTTAAGAACCGGACGAACTAGAATATTATATTTT; assay: equilibrium filtration, γ-32P-ATP, Hill fit; conditions: 5 mM MgCl2, 300 mM NaCl; 20 mM Tris-HCl pH 7.6; 4 °C in methods, 24 °C in legend; apparent

Nc1nc2c(ncn2[C@@H]2O[C@H](COP(=O)(O)OP(=O)(O)OP(=O)(O)O)[C@@H](O)[C@H]2O)c(=O)[nH]1
Kd [1]: > 2 mM

Nc1ncnc2c1ncn2[C@@H]1O[C@H](COP(=O)(O)OP(=O)(O)OP(=O)(O)O)[C@@H](O)[C@H]1O
KD [2]: 22 ± 5 µM

O=c1ccn([C@@H]2O[C@H](COP(=O)(O)OP(=O)(O)OP(=O)(O)O)[C@@H](O)[C@H]2O)c(=O)[nH]1
Kd [1]: > 2 mM

Nc1ccn([C@@H]2O[C@H](COP(=O)(O)OP(=O)(O)OP(=O)(O)O)[C@@H](O)[C@H]2O)c(=O)n1
Kd [1]: > 2 mM
